{"source": "patent US9549942B2", "about": "“Composition for preventing or treating degenerative brain diseases including compound downregulating expression of BACE1 proteins” (RESEARCH & BUSINESS FOUNDATION SUNGKYUNKWAN UNIVERSITY, priority 2013, dated 2017)", "key": {"[1]": {"tested_on": "Aβ40 and Aβ42", "assay": "Generation of Aβ40 and Aβ42 in brain, human amyloid β assay kits (ELISA)", "assay_type": "in vivo", "conditions": "3×Tg-AD mouse brain, 25 mg/kg orally every day for 4 weeks", "protocol": "(§1) As an Alzheimer's dementia animal model, 3×Tg-AD mice were used. The 3×Tg-AD mouse is a mouse having overexpressed presenilin, amyloid precursor protein (APP), and Tau genes, which are frequently found in Alzheimer's dementia. The 3×Tg-AD mouse is an animal model that is widely used for research on Alzheimer's dementia (Oddo S. et al, 2003, Neuron, 39, 409-421). 25 mg/kg of chlorhexidine was orally administered every day for 4 weeks; and 0.1 mg/kg and 0.5 mg/kg of thioguanosine were orally administered every day for 8 weeks to 6-month old 3×Tg-AD mice. A Morris water maze test was used to evaluate the effects of chlorhexidine and thioguanosine administration on the mice.\n(§2) From the 3×Tg-AD mouse to which chlorhexidine was administered in Example 4a brain was extracted. A […] frozen section was prepared from the extracted brain using a microtome. Then, generation of Aβ was measured using immuno staining or a human amyloid 13 (1-40) assay kit (IBL) and a human amyloid β (1-42) assay kit (IBL). FIGS. 20 and 21 show the results."}, "[2]": {"tested_on": "BACE1 proteins", "assay": "BACE1 protein expression in brain of Alzheimer's dementia animal model (Western blot)", "assay_type": "in vivo", "conditions": "3×Tg-AD mouse, 25 mg/kg orally every day for 4 weeks", "protocol": "as §1\n(§3) From the 3×Tg-AD mouse to which chlorhexidine was administered in Example 4a brain was extracted. The extracted brain was lysed using a tissue lysis buffer and RNA was extracted using Trizol. The amount of BACE1 expression was determined by Western blot and real-time PCR. FIGS. 18 and 19 show the results."}, "[3]": {"tested_on": "BACE1 promoter", "assay": "BACE1 promoter activity, BACE1 promoter-luciferase vector, Dual-Luciferase assay", "assay_type": "cell-based", "conditions": "Homo sapiens; SH-SY5Y transfected with BACE1 promoter-luciferase vector, 10 μM for 24 hours; read-out: decrease of BACE1 promoter activity", "protocol": "A BACE1 promoter-luciferase vector was transfected to brain nerve cells (SH-SY5Y). […] A change in a BACE1 promoter activity was measured using a Dual-Luciferase assay kit."}, "[4]": {"tested_on": "Aβ", "assay": "Generation of Aβ in brain cortex, immuno staining", "assay_type": "in vivo", "conditions": "3×Tg-AD mouse, 25 mg/kg orally every day for 4 weeks", "protocol": "as §1, §2"}, "[5]": {"tested_on": "BACE1 proteins", "assay": "Amount of expression of BACE1 proteins in brain nerve cells (Western blot)", "assay_type": "cell-based, human", "conditions": "SH-SY5Y cells, treated 24 hours at 0.625, 1.25, 2.5, 5 and 10 μM, actin control", "protocol": "As brain nerve cells, human neuroblastoma cells SH-SY5Y were used. […] The SH-SY5Y cells were plated at 5×10^5 cells/well into a 6-well plate. […] Then, the amount of expression of BACE1 proteins was determined by Western blot. Actin was used throughout as a control."}, "[6]": {"tested_on": "3×Tg-AD mice", "assay": "Morris water maze test, learning ability, Alzheimer's dementia animal model", "assay_type": "in vivo, mouse", "conditions": "25 mg/kg orally every day for 4 weeks, on the third and fourth days", "protocol": "as §1, with “the mice. […] In this configuration, a treated or control subject was placed into the water with its head towards a water tank wall surface, and a time was recorded for the length of time taken for finding the escape platform. […] After 15 minutes, the mouse was placed into the water again, a subsequent time taken for finding the escape platform was recorded, and a change in the learning ability was determined. This procedure was performed over four days, and the result of change in learning ability was measured. […]” for “the mice.”"}, "[7]": {"tested_on": "BACE1 mRNA", "assay": "BACE1 mRNA under oxidative stress (HNE) conditions of brain nerve cells (real-time PCR)", "assay_type": "cell-based, human", "conditions": "SH-SY5Y cells pretreated 24 hours at 1, 5 and 10 μM, then HNE", "protocol": "In order to determine an influence of chlorhexidine and thioguanosine of the present disclosure on an amount of BACE1 expression under oxidative stress conditions of brain nerve cells, the following experiment was performed.\nBrain nerve cells, SH-SY5Y cells, were pretreated with chlorhexidine and thioguanosine at 1 μM, 5 μM, and 10 μM for 24 hours. Then, an oxidative stress substance HNE (4-hydroxynonenal) was applied to the SH-SY5Y cells, and a change in the amount of BACE1 proteins was determined by Western blot. A change in an amount of BACE1 mRNA was determined by real-time PCR.\nIn this regard, in FIGS. 9 and 10, asterisks (**) indicate a significant (p≦0.01) increase of BACE1 mRNA expression relative to control. Similarly, number signs (##) indicate a significant (p≦0.01) decrease, and number signs (###) indicate a significant (p≦0.001) decrease in BACE1 mRNA expression relative to oxidative stress conditions."}, "[8]": {"tested_on": "APP CTFs (C83 and C99)", "assay": "Generation of APP CTFs (C83 and C99) under oxidative stress conditions of brain nerve cells (Western blot)", "assay_type": "cell-based, human", "conditions": "SH-SY5Y cells pretreated 24 hours at 5 and 10 μM, then HNE", "protocol": "In order to determine an influence of chlorhexidine and thioguanosine of the present disclosure on APP CTFs under oxidative stress conditions of brain nerve cells, the following experiment was performed. Brain nerve cells, SH-SY5Y cells, were pretreated with chlorhexidine and thioguanosine at 5 μM and 10 μM for 24 hours. Then, an oxidative stress substance HNE (4-hydroxynonenal) was used as the treatment, and the generation of APP CTFs (C83 and C99) was determined by Western blot. Under oxidative stress conditions of brain nerve cells treated in accordance with the present disclosure, changes in the generation of APP CTFs are shown in FIGS. 11 and 12."}, "[9]": {"assay": "Body weights and weights of organs (potential toxicity)", "conditions": "mouse, in vivo, po, 25 mg/kg", "protocol": "as §1\nIn order to evaluate potential toxicity of chorhexidine, the body weights and weights of organs were measured for treatment and vehicle subjects."}, "[10]": {"tested_on": "BACE1 mRNA", "assay": "BACE1 mRNA in brain of Alzheimer's dementia animal model (real-time PCR)", "assay_type": "in vivo", "conditions": "3×Tg-AD mouse, 25 mg/kg orally every day for 4 weeks", "protocol": "as §1, §3"}}, "data": [{"smiles": "[H]/N=C(\\N/C(=N/[H])NCCCCCCNC(=N)NC(=N)Nc1ccc(Cl)cc1)Nc1ccc(Cl)cc1", "note": "[chlorhexidine, N′,N′″″-hexane-1,6-diylbis[N-(4-chlorophenyl)(imidodicarbonimidic diamide)]]", "values": [{"measurement": "generation of Aβ40", "setting": "[1]", "value": "decreased"}, {"measurement": "generation of Aβ42", "setting": "[1]", "value": "decreased"}, {"measurement": "expression of BACE1 proteins in brain", "setting": "[2]", "value": "lower expression of BACE1 proteins than that of the control group"}, {"measurement": "inhibition at 10 µM", "setting": "[3]", "value": "≥ 50", "unit": "%"}, {"measurement": "generation of Aβ in cortex part of brain", "setting": "[4]", "value": "lower generation of Aβ than that of the control group"}, {"measurement": "amount of expression of BACE1 proteins", "setting": "[5]", "value": "decreased at 5 μM and 10 μM"}, {"measurement": "learning ability for finding the platform (Morris water maze)", "setting": "[6]", "value": "faster learning ability for finding the platform than a control group"}, {"measurement": "increase in the amount of BACE1 mRNA due to oxidative stress", "setting": "[7]", "value": "decreased at 1 μM and at 5 μM"}, {"measurement": "increase in CTFs due to oxidative stress", "setting": "[8]", "value": "decreased at 5 μM and 10 μM"}, {"measurement": "toxicity", "setting": "[9]", "value": "no toxicity was determined"}, {"measurement": "amount of BACE1 mRNA in brain", "setting": "[10]", "value": "lower amount of BACE1 mRNA than that of the control group"}]}]}
